Experimental data reported in patent US20070219180A1, “Muscle Relaxtion Accelerator and Therapeutic Agent for Muscular Tissue Diseases Such as Muscle Relaxation Failure” (priority 2004, published 2007).
“And” between values parts separate entries of the source, which are not always exact repeats. Identical values can stand only once.

Legend:
[1] = system: white rabbits; assay: Experiment 8: inhibition of clofilium-induced torsades de pointes; type: in vivo, rabbit
Protocol: Inhibition of clofilium-induced torsades de pointes by the compound In this experiment, four white rabbits (weight: 2.8-3.2 kg) were used. Each rabbit was intravenously anesthetized with 5 mg/kg methohexital sodium. Injection catheters for the compound and test drug were inserted into the right external jugular veins of the rabbits, and microchip catheters (SPC-320, Millar) for blood pressure measurement were inserted via the right common arteries, under artificial respiration by endotracheal intubation.
The compound solution was prepared by dissolving 100 mg of the compound in 1 ml of dimethylsulfoxide (DMSO), and stored at 4° C.
A 2-lead electrocardiogram and blood pressure of each rabbit were recorded simultaneously on a personal computer via an A/D converter. In this experiment, a sequence of more than 6 polymorphic ventricular tachycardia configurations on the electrocardiogram was defined as torsades de pointes. The number of onsets of torsades de pointes was recorded by electrocardiogram for 30 minutes after administration of clofilium. Methoxamine (an α-stimulant) was used to rapidly induce torsades de pointes. The compound, methoxyamine and clofilium were administered in physiological saline. […]

[2] = system: male Wistar rats; assay: Experiment 12: effect on myocardial microcirculation (microsphere myocardial tissue blood flow rate); type: in vivo, rat
Protocol: The effects of the compound on myocardial microcirculation were examined. In this experiment, the 1-hydrochloride of the compound, 4-[3-(4-benzylpiperidin-1-yl)propionyl]-7-methoxy-2,3,4,5-tetrahydro-1,4-benzothiazepine 1-hydrochloride (hereinafter called the compound) was used as the 1,4-benzothiazepine derivative or pharmaceutically acceptable salt thereof.
Four 8-week old male Wistar rats weighing 300-310 g were used in the study. The rats were anesthetized with 1,000 mg/kg of urethane and 80 mg/kg of α-chloralose by subperitoneal injection under artificial respiration (Harvard) using endotracheal intubation. In this experiment, 100 mg of the compound was dissolved in 1 ml of dimethylsulfoxide (DMSO) and the resulting DMSO solution of the compound was stored at 4° C. Norepinephrine solution was prepared by dissolving 1 mg of norepinephrine in 41 μl of distilled water, at an infusion speed of 30 μg/kg/min.
Firstly, continuous infusion catheters of calcium chloride solution or norepinephrine solution containing calcium chloride were inserted into the right external jugular veins of the rats, and 2F polyethylene catheters for microspheres were inserted into the left ventricles via the right common arteries. In addition, test drug infusion catheters were inserted into the right femoral veins.
A 1-lead electrocardiogram and the left ventricular pressure were recorded simultaneously on a personal computer via an A/D converter. In the preparation step, blood pressure, pulse, and electrocardiogram of the rats were monitored for 15 minutes and allowed to stabilize, and then 5% dextrose solution containing calcium chloride (at a concentration based on the weight of the rat) was infused into the right external jugular vein for 20 minutes at 16.6 μl/min (12 mg/kg/min of calcium chloride). Next, norepinephrine solution containing calcium chloride without changes in dosage regimen was immediately injected at a rate of 30 μg/kg/min via the right external jugular vein. After the start of administration, calcium chloride and norepinephrine were then continuously injected in the form of a norepinephrine solution containing calcium chloride. With continuous injection of calcium chloride via the right external jugular vein, 5% dextrose solution containing 0.1% DMSO solution was administered via the right femoral vein to Control A rat weighing 310 g (to which the compound was not administered) and to Control B rat weighing 300 g (to which the compound was not administered), 5 minutes before commencement of injection (intravenous injection) of the norepinephrine solution containing calcium chloride. In addition, with continuous injection of calcium chloride via the right external jugular vein, a 5% dextrose solution of the compound was continuously administered to Test 15 rat weighing 300 g and Test 16 rat weighing 300 g for 3 minutes at a rate of 0.33 mg/kg/min and subsequently for 25 minutes at a rate of 0.01 mg/kg/min, 5 minutes before commencement of injection (intravenous injection) of the norepinephrine solution containing calcium chloride via the right external jugular vein. The infusion rate was 0.5 ml/3 minutes for the first 3 minutes and then 0.05 ml/3 minutes.
Myocardial tissue blood flow rate was measured twice using microspheres, 5 minutes before the start of calcium chloride administration and 20 minutes after the start of administration of norepinephrine solution containing calcium chloride. […]

## COc1ccc2c(c1)CN(C(=O)CCN1CCC(Cc3ccccc3)CC1)CCS2 [the compound, 4-[3-(4-benzylpiperidine-1-yl)propionyl]-7-methoxy-2,3,4,5-tetrahydro-1,4-benzothiazepine]
[1]; clofilium 50 μg/kg/min + the compound 0.2 mg/kg/min i.v., monitored 30 minutes
  Onset of torsades de pointes (electrocardiogram): completely prevented
[1]; number of onsets in 30 minutes after start of clofilium 50 μg/kg/min under methoxamine 15 μg/kg/min, the compound 0.2 mg/kg/min i.v. for 30 min
  Incidence of torsades de pointes: 0
[2]; 5 minutes before the start of CaCl2 administration (baseline), compound later 0.33 mg/kg/min 3 min then 0.01 mg/kg/min 25 min
  Myocardial tissue blood flow rate: 4.6 mL/min/g and 4.3 mL/min/g
[2]; 5 minutes before the start of CaCl2 administration (defined as 100%)
  Myocardial tissue blood flow rate, ratio to 5 minutes before CaCl2: 100%
[2]; 20 minutes after the start of norepinephrine containing CaCl2
  Decrease in myocardial tissue blood flow under diastolic dysfunction with administration of the compound: ≤ 30%
[2]; 20 minutes after the start of norepinephrine solution containing CaCl2, compound 0.33 mg/kg/min 3 min then 0.01 mg/kg/min 25 min
  Myocardial tissue blood flow rate, ratio to 5 minutes before CaCl2: 70% and 98%
[2]; 20 minutes after the start of norepinephrine solution containing CaCl2, compound 0.33 mg/kg/min 3 min then 0.01 mg/kg/min 25 min, from 5 min before norepinephrine
  Myocardial tissue blood flow rate: 3.2 mL/min/g and 4.2 mL/min/g
